Where two headings read alike, the source gives them in different places.
Assays:
[1] = Liver microsomal stability, human liver microsomes; format: in vitro ADME; details: 1 μM compound, NADPH, read-out: t1/2 (min) in HLM
Procedure: (§1) Certain Compounds of the Disclosure were assessed for ADME metabolic stability in human liver microsomes (HLM) and rat liver microsomes (RLM).
(§2) Samples were prepared by adding 222.5 μL of a master solution (100 mM phosphate buffer and 1 mg/mL liver microsomes (HLM or RLM)) and 25 μL of a 10 mM NADPH solution to incubation plates, which were then warmed for 10 min. Each compound was separately dissolved in DMSO to prepare 10 mM stock solutions, which were then diluted to 100 μM with acetonitrile. A reaction was started by adding 2.5 μL of the 100 μM solution of each compound to separate incubation plates such that the final concentration of for each compound in each plate was 1 μM.
(§3) 25 μL aliquots of each sample were taken at 0.5, 5, 10, 15, 20 and 30 minutes, and the reaction was stopped by adding 5 volumes of cold acetonitrile with IS (100 nM alprazolam, 200 nM caffeine and 100 nM tolbutamide). The samples were then centrifuged at 3,220 G for 30 minutes, and 100 μL of the supernatant fluid was mixed with 100 μL of ultra-pure H2O.
(§4) The samples were then analyzed by LC-MS/MS. Peak areas were determined from extracted ion chromatograms. Slope values (k) were determined by linear regression of the natural logarithm of the remaining percentage of the compound vs. incubation time curve. […] The in vitro half-life (min) was converted into the in vitro intrinsic clearance (in vitro CLint, in μL/min/mg protein) using the following equation: […]

[2] = ADME solubility determination at pH 2.0 and pH 7.4; format: physicochemical; details: aqueous buffer, thermodynamic from solid, LC-MS/MS
Procedure: Certain Compounds of the Disclosure were assessed for ADME solubility at pH 2.0 and pH 7.4.
Stock solutions were prepared by adding each compound to DMSO at a concentration of 10 mM. Samples were prepared by adding 50 μL of each stock solution to separate vials. The vials were loaded onto a 96-well rack and dried. 500 μL of Phosphate Buffered Saline (PBS) pH 7.4 or PBS pH 2.0 were added into each vial. The vials were then shaken at 25° C. and 1,100 rpm for 24 hours.
After 24 hours, the vials were centrifuged at 3220 G and 25° C. for 30 minutes. The supernatant fluid was analyzed by LC-MS/MS against a standard of known concentration. The solubility of each sample was then calculated using the equation below:
[formula] where DF is the dilution factor.

[3] = Liver microsomal stability, rat liver microsomes; format: in vitro ADME; details: 1 μM compound, NADPH, read-out: t1/2 (min) in RLM
Procedure: as §1, §2, §3, §4

[4] = PBS pH 2.0, shaken at 25° C. for 24 hours, read-out: Solubility at pH 2.0
[5] = PBS pH 7.4, shaken at 25° C. for 24 hours, read-out: Solubility at pH 7.4

Structure (SMILES) | half-life at 1 μM [1] [min] | solubility at 24 h [2, 4] [µM] | solubility at 24 h [2, 5] [µM] | half-life at 1 μM [3] [min] | solubility at 24 h ([2]; phosphate buffered saline, PBS pH 2.0, shaken at 25° C. for 24 hours, read-out: Solubility at pH 2.0) [µM] | solubility at 24 h ([2]; phosphate buffered saline, PBS pH 7.4, shaken at 25° C. for 24 hours, read-out: Solubility at pH 7.4) [µM]
COc1ncnc(C2CC2)c1-c1ncc2cnn(Cc3ccc(-n4nc(C(F)(F)F)cc4C)cc3)c2n1 [Example 27] | > 25 | < 10 | < 10 | > 25 | – | –
Cc1nn(Cc2ccc(-c3nc(C(F)(F)F)cn3C)cc2)c2nc(-c3ccccc3C(C)C)ncc12 [Example 25] | < 25 | < 10 | < 10 | < 25 | – | –
COc1nc(C)c(-c2ncc3cnn(Cc4ccc(-c5nc(C(F)(F)F)cn5C)cc4)c3n2)c(OC)n1 [Example 111] | < 25 | > 10 | < 10 | > 25 | – | –
COCCOc1ncnc(C2CC2)c1-c1ncc2cnn(Cc3ccc(-n4nc(C(F)(F)F)cc4C)cc3)c2n1 [Example 43] | < 25 | < 10 | > 10 | < 25 | – | –
COc1cccc(C)c1-c1ncc2cnn(Cc3ccc(-c4nc(C(F)(F)F)cn4C)cc3)c2n1 [Example 5, 6-(2-methoxy-6-methylphenyl)-1-(4-(1-methyl-4-(trifluoromethyl)-1H-imidazol-2-yl)benzyl)-1H-pyrazolo[3,4-d]pyrimidine] | < 25 | > 10 | < 10 | < 25 | – | –
COc1ncnc(C2CC2)c1-c1ncc2cnn(Cc3ccc(-c4nc(C(F)(F)F)cn4C)c(F)c3)c2n1 [Example 17] | > 25 | < 10 | < 10 | > 25 | – | –
COc1ncnc(C2CC2)c1-c1ncc2cnn(Cc3ccc(-n4nc(C(F)(F)F)cc4-c4ccco4)cc3)c2n1 [Example 30, 6-(4-cyclopropyl-6-methoxypyrimidin-5-yl)-1-(4-(5-(furan-2-yl)-3-(trifluoromethyl)-1H-pyrazol-1-yl)benzyl)-1H-pyrazolo[3,4-d]pyrimidine] | < 25 | < 10 | < 10 | < 25 | – | –
COc1ncnc(C2CC2)c1-c1ncc2ncn(Cc3ccc(-n4nc(C(F)(F)F)cc4C)cc3)c2n1 [Example 210] | > 25 | > 10 | > 10 | > 25 | – | –
CCn1cc(C(F)(F)F)nc1-c1ccc([C@H](C)n2ncc3cnc(-c4c(OC)ncnc4OC)nc32)cc1 [Example 88] | > 25 | > 10 | > 10 | < 25 | – | –
COc1ncnc(C2CC2)c1-c1ncc2nc(C(C)C)n(Cc3ccc(-n4nc(C(F)(F)F)cc4C)cc3)c2n1 [Example 212] | > 25 | < 10 | < 10 | > 25 | – | –
COc1ncnc(C2CC2)c1-c1ncc2cnn([C@@H]3CCc4cc(-c5nc(C(F)(F)F)cn5C(C)C)ccc43)c2n1 [Example 174] | > 25 | < 10 | < 10 | > 25 | – | –
Cn1cc(C(F)(F)F)nc1-c1ccc(Cn2ncc3cnc(-c4ccccc4S(C)(=O)=O)nc32)cc1 [Example 3, 1-(4-(1-methyl-4-(trifluoromethyl)-1H-imidazol-2-yl)benzyl)-6-(2-(methylsulfonyl)-phenyl)-1H-pyrazolo[3,4-d]pyrimidine] | > 25 | > 10 | < 10 | > 25 | – | –
COc1ncnc(C2CC2)c1-c1ncc2cnn(Cc3ccc(-c4nc(C(F)(F)F)cn4C(C)C)c(F)c3)c2n1 [Example 19] | > 25 | > 10 | > 10 | > 25 | – | –

Second part, the compound after the results:

half-life at 1 μM [1] [min] | solubility at 24 h [2, 4] [µM] | solubility at 24 h [2, 5] [µM] | half-life at 1 μM [3] [min] | solubility at 24 h ([2]; phosphate buffered saline, PBS pH 2.0, shaken at 25° C. for 24 hours, read-out: Solubility at pH 2.0) [µM] | solubility at 24 h ([2]; phosphate buffered saline, PBS pH 7.4, shaken at 25° C. for 24 hours, read-out: Solubility at pH 7.4) [µM] | Structure (SMILES)
> 25 | < 10 | < 10 | < 25 | – | – | CCn1cc(C(F)(F)F)nc1-c1ccc(Cn2nc(C)c3cnc(-c4c(OC)ncnc4C4CC4)nc32)cc1 [Example 187, 6-(4-cyclopropyl-6-methoxypyrimidin-5-yl)-1-(4-(1-ethyl-4-(trifluoromethyl)-1H-imidazol-2-yl)benzyl)-3-methyl-1H-pyrazolo[3,4-d]pyrimidine]
> 25 | < 10 | < 10 | > 25 | – | – | COc1ncnc(C2CC2)c1-c1ncc2cnn(Cc3ccc(-n4nc(C(F)(F)F)cc4OC)cc3)c2n1 [Example 37]
> 25 | > 10 | < 10 | > 25 | – | – | COc1cc(Cn2ncc3cnc(-c4c(OC)ncnc4C4CC4)nc32)ccc1-c1nc(C(F)(F)F)cn1CCF [Example 129]
> 25 | < 10 | < 10 | < 25 | – | – | CCn1cc(C(F)(F)F)nc1-c1ccc(Cn2ncc3c(OC)nc(-c4c(OC)ncnc4C4CC4)nc32)cc1 [Example 52]
> 25 | > 10 | > 10 | > 25 | – | – | COc1ncnc(C2CC2)c1-c1ncc2cnn(Cc3ccc(-c4nc(C(F)(F)F)cn4CCF)cc3)c2n1 [Example 137]
> 25 | < 10 | < 10 | > 25 | – | – | COc1ncnc(C2CC2)c1-c1ncc2cnn(Cc3ccc(-c4nc(C(F)(F)F)cn4C(C)C)cc3)c2n1 [Example 143]
> 25 | > 10 | > 10 | > 25 | – | – | CCc1nc2cnc(-c3c(OC)ncnc3C3CC3)nc2n1Cc1ccc(-c2nc(C(F)(F)F)cn2C(C)C)cc1 [Example 205, 2-(4-cyclopropyl-6-methoxypyrimidin-5-yl)-8-ethyl-9-(4-(1-isopropyl-4-(trifluoromethyl)-1H-imidazol-2-yl)benzyl)-9H-purine]
> 25 | < 10 | < 10 | > 25 | – | – | COc1ncnc(C2CC2)c1-c1ncc2cnn(Cc3ccc(-c4nc(C(F)(F)F)n(C)n4)cc3)c2n1 [Example 85]
< 25 | > 10 | < 10 | < 25 | – | – | CC(C)Oc1ncnc(C2CC2)c1-c1ncc2cnn(Cc3ccc(-c4nc(C(F)(F)F)cn4C)cc3)c2n1 [Example 40]
> 25 | < 10 | < 10 | > 25 | – | – | CCn1cc(C(F)(F)F)nc1-c1ccc(Cn2ncc3c(C)nc(-c4c(OC)ncnc4C4CC4)nc32)cc1 [Example 53]
> 25 | – | – | > 25 | > 10 | < 10 | COc1ncnc(C2CC2)c1-c1ncc2cnn(Cc3ccc(-c4nc(C(F)(F)F)nn4C)cc3)c2n1 [Example 56]
> 25 | < 10 | < 10 | < 25 | – | – | CCn1cc(C(F)(F)F)nc1-c1ccc(Cn2nc(C#N)c3cnc(-c4c(OC)ncnc4C4CC4)nc32)cc1 [Example 172, 6-(4-cyclopropyl-6-methoxypyrimidin-5-yl)-1-(4-(1-ethyl-4-(trifluoromethyl)-1H-imidazol-2-yl)benzyl)-1H-pyrazolo[3,4-d]pyrimidine-3-carbonitrile]
